Assay results taken from BindingDB's records for patent US20250248955 (Longivitron (Suzhou) Biotechnology Co., 2025).

Each molecule was assayed against T1, Acetyl-CoA acetyltransferase, mitochondrial (Homo sapiens, UniProt P24752) (assay: Experimental Method Screening Method of ACAT1 Small Molecule Inhibitors).
T1 sequence (P24752 whole entry): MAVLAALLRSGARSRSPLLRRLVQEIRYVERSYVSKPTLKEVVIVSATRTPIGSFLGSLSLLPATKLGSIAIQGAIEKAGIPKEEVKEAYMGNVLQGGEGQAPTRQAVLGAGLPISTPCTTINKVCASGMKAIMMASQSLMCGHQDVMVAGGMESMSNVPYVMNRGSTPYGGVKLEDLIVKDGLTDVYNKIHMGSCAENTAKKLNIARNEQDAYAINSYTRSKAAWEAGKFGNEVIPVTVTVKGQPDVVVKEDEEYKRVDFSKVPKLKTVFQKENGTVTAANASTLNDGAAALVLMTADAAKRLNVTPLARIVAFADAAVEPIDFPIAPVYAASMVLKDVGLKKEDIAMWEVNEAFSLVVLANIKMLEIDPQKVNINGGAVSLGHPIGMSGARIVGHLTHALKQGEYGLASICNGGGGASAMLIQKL
Method: ACAT1 can catalyze two molecules of acetyl coenzyme A to reversibly form acetoacetyl coenzyme A. Its activity was measured through the reaction between ACAT1-catalyzed substrate acetoacetyl-coenzyme A and coenzyme A, from which the product acetyl-coenzyme A is produced. Since acetoacetyl-coenzyme A is specifically absorbed in a specific spectrum, the impact on the enzyme activity of ACAT1 can be reflected through the detection of an increase or decrease of absorption in a specific spectrum.ACAT1 recombinant proteins were expressed and purified by Escherichia coli, and the concentration of ACAT1 recombinant proteins obtained was 1 mg/mL. The buffers adopted for ACAT1 small molecule inhibitor screening were 50 mM Tris-HCl (pH 8.1), 20 mM MgCl2, and 40 mM KCl. In 200 μL of enzyme catalytic system, 1 μL of ACAT1 recombinant proteins, the substrate […] whose final concentration was changed from 25 μM to 100 μM through a CPM probe, and small molecule inhibitors at different concentrations were added, respectively.

`COc1ccc([C@H](O)[C@@H](C)Oc2ccc(OC(=O)/C=C/c3ccc(O)c(O)c3)cc2OC)cc1OC` [US20250248955, Compound M2] and `COc1ccc([C@@H](O)[C@@H](C)Oc2ccc(OC(=O)/C=C/c3ccc(O)c(O)c3)cc2OC)cc1OC` [US20250248955, Compound M3] cannot be ordered by IC50: greater than 100 µM for the first, greater than 100 µM for the second.

`O=C(/C=C/c1ccc(O)c(O)c1)Nc1ccc(OCCc2ccccc2)cc1` [US20250248955, Compound M4] and `O=C(/C=C/c1ccc(O)c(O)c1)Nc1ccc(OCCc2ccc(F)cc2)cc1` [US20250248955, Compound M6] are within 1.5-fold of each other in IC50: 112 µM for the first, 134 µM for the second.

Compared with `O=C(/C=C/c1ccc(O)c(O)c1)Nc1ccc(OCCc2ccc(O)cc2)cc1` [US20250248955, Compound M8], `COCOc1ccc(/C=C/C(=O)Nc2ccc(OCCc3ccc(O)cc3)cc2)cc1OCOC` [US20250248955, Compound M15] is 2.7-fold higher in IC50: 114 µM for the first, 312 µM for the second. The first is the more potent here.

`COCOc1ccc(/C=C/C(=O)Nc2ccc(OCCc3ccccc3)cc2)cc1OCOC` [US20250248955, Compound M11] and `COCOc1ccc(/C=C/C(=O)Nc2ccc(OCCc3ccc(F)cc3)cc2)cc1OCOC` [US20250248955, Compound M13] are within 1.5-fold of each other in IC50: 136 µM for the first, 152 µM for the second.

First: COCOc1ccc(/C=C/C(=O)Nc2ccc(OCCc3ccc(C)cc3)cc2)cc1OCOC [US20250248955, Compound M14]
Second: COCOc1ccc(/C=C/C(=O)Nc2ccc(OCCc3ccc(OC)c(OC)c3)cc2)cc1OCOC [US20250248955, Compound M16]
The IC50 of the first is 1.5-fold lower: 111 µM for the first, 172 µM for the second.
